Experimental data reported in patent US10555987B2, “GHRH agonists for the treatment of ischemic disorders” (UNIVERSITY OF MIAMI, priority 2012, dated 2020).
Several values for one entry are separate records, joined by “and”; a condition that tells them apart may be missing. Equal entries are not always repeated. Non-standard residues stand in square brackets, D forms with d. Residues, ends and D or L forms follow the SMILES beside them. *: point of attachment. Desaminotyrosyl = O=C(CCc1ccc(O)cc1)*; NMeY = CN[C@@H](Cc1ccc(O)cc1)C(=O)O; Agmatine = N=C(N)NCCCCN*; Nle = CCCC[C@H](N)C(=O)O; Orn = NCCC[C@H](N)C(=O)O; dAbu = CC[C@@H](N)C(=O)O; Abu = CC[C@H](N)C(=O)O; Ava = NCCCCC(=O)O; GABA = NCCCC(=O)O

Key:
GHRH receptor [1] = molecular target: T1, GHRH receptor (Homo sapiens, UniProt Q02643); experiment: GHRH receptor binding, competition with 125I-labeled [His1,Nle27]hGHRH(1-32)NH2, human pituitary membrane homogenates (Table 6); parameters: Normal human pituitaries were purchased from the National Hormone and Peptide Program; tissue National Hormone and Peptide Program (A.F. Parlow, Harbor-UCLA Medical Center, Torrance, Calif.); host or cells: normal human pituitary, membrane fraction; settings: GHRH(1-29) = 1, Table 6
T1 sequence (Q02643 23-423): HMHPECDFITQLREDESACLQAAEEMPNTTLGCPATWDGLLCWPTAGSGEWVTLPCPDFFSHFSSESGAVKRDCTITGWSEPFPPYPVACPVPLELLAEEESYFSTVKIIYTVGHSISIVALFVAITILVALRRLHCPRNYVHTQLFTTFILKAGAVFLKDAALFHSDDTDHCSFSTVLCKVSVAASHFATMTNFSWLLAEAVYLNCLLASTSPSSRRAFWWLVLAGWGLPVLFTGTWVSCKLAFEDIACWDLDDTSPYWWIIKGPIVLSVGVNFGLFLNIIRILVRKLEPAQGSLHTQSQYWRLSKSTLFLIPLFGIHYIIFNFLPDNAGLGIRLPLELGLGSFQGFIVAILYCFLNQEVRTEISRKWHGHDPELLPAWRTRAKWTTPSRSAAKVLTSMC
Source text: (§1) Normal human pituitaries were purchased from the National Hormone and Peptide Program (A.F. Parlow, Los Angeles, County Harbor-UCLA Medical Center, Torrance, Calif.).

GHRH receptor [2] = molecular target: T1, GHRH receptor; experiment: GHRH receptor binding, competition with 125I-labeled JV-1-42, human pituitary membrane homogenates (Table 7); parameters: Normal human pituitaries were purchased from the National Hormone and Peptide Program; tissue National Hormone and Peptide Program (A.F. Parlow, Harbor-UCLA Medical Center, Torrance, Calif.); host or cells: normal human pituitary, membrane fraction; settings: JI-38 = 1, Table 7
Source text: as §1

GHRH receptor [3] = molecular target: T1, GHRH receptor; experiment: Receptor binding in vitro, 125I-labeled [His1,Nle27]-hGHRH(1-32)NH2, membrane receptors of human anterior pituitary cells (Table 14); settings: for Relative affinity (Binding potency) compared to JI-38: JI-38 = 1; for Relative affinity (Binding potency) compared to hGHRH(1-29): hGHRH(1-29)NH2 = 1
Source text: Normal human pituitary was purchased from the National Hormone and Peptide Program (UCLA Medical Center, Torrance, Calif.).

GH release [4] = experiment: GH releasing potency in vivo, subcutaneous administration (Example 14, Table 12); parameters: species or system rat; settings: s.c.; for Serum GH level at selected time after injection (ng/ml), 0 min / Serum GH level at selected time after injection (ng/ml), 15 min / Serum GH level at selected time after injection (ng/ml), 30 min: male rats, dose 3 μg/kg, mean ± SEM
How it was run: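 Potency is expressed relative to GHRH(1-29)NH2 and JI-38 (each = 1), via equivalent GHRH(1-29)NH2 dose read from a standard curve. Peptides in 5% mannitol given i.v. or s.c. to anaesthetised male Sprague-Dawley rats (200-250 g); serum GH measured by ELISA at selected times.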

GH release [5] = experiment: In vivo endocrine activity, GH release after intravenous administration (Table 8); settings: rat, i.v. injection
GH release [6] = experiment: In vivo endocrine activity, GH release after subcutaneous administration (Table 9); settings: rat; for GH releasing potency relative to JI-38 (=1): subcutaneous (s.c.) injection
Protocol: Subcutaneous Administration. Adult male rats were used and anesthetized with pentobarbital (6 mg/100 g, b.w.), by i.p. injection. […] Blood samples were taken from the jugular vein 5, 15 and/or 30 minutes after the injection. The blood samples were centrifuged, plasma was removed and the GH level was measured byELISA. The results are summarized in terms of potency in Table 9.

GH release [7] = experiment: GH releasing potency in vivo, intravenous administration (Example 14, Table 13); parameters: species or system rat; settings: i.v.
Protocol: Male Sprague-Dawley rats, weighing 200-250 g, were purchased from Charles River Laboratory (Wilmington, Mass.) and used for experiments. All animal procedures were approved by the Veterans Affairs Animal Care and Use Committee and were conducted in accordance with additional institutional guidelines as well. Briefly, groups of 5-6 animals were used in each experiment. The rats were anesthetized with 50 mg/kg of sodium pentobarbital (Nembutal, Lundbeck Inc., Deerfield, Ill.). Twenty min after inducing anesthesia, GHRH(1-29)NH2, JI-38, or new analogs were injected into the animals intravenously (i.v.) or subcutaneously (s.c.). The peptides were dissolved in 0.01 M acetic acid to get 1 μg/μl stock solution, and then diluted with 5% mannitol. Control rats received 5% mannitol only. Blood samples were collected from the jugular vein at selected times and were used for serum preparation. Concentrations of GH in rat sera were determined by ELISA. The relative potencies of tested peptides were calculated using GHRH(1-29)NH2 and JI-38 for comparison, whose potency was defined as 1. The equivalent dosage of GHRH(1-29)NH2 to reach the same level of serum growth hormone release after injection of the specific tested peptide was determined from a GHRH(1-29)NH2 standard curve using Origin 6.0 software. […] Serum GH was determined using the rat Growth Hormone ELISA kit (ALPCO Diagnostics, Mill Valley, Calif.) according to the manufacturer's instruction. Absorbance at 405 nm was measured by a Victor 3 Multi-label Counter (Perkin-Elmer, Waltham, Md.).

Row | Compound | Relative affinity (Binding potency) vs GHRH (GHRH receptor [1]) | Relative affinity (Binding potency) vs JI-38 (GHRH receptor [2]) | Relative affinity (Binding potency) compared to JI-38 (GHRH receptor [3]) | Relative affinity (Binding potency) compared to hGHRH(1-29) (GHRH receptor [3]) | Serum GH level at selected time after injection (ng/ml), 0 min (GH release [4]) [ng/mL] | Serum GH level at selected time after injection (ng/ml), 15 min (GH release [4]) [ng/mL] | Serum GH level at selected time after injection (ng/ml), 30 min (GH release [4]) [ng/mL] | Relative potency compared to GHRH(1-29), 15 min (GH release [4]) | Relative potency compared to GHRH(1-29), 30 min (GH release [4]) | GH releasing potency in vivo relative to JI-38 (=1) (GH release [5]; 15 min after) | GH releasing potency in vivo relative to JI-38 (=1) (GH release [5]; 30 min after) | GH releasing potency relative to JI-38 (=1) (GH release [6]; 15 min after) | GH releasing potency relative to JI-38 (=1) (GH release [6]; 30 min after) | other results
1 | CCCC[C@H](NC(=O)[C@@H](NC(=O)[C@H](CC(=O)O)NC(=O)[C@H](CCC(N)=O)NC(=O)[C@H](CC(C)C)NC(=O)[C@H](CC(C)C)NC(=O)[C@H](CCCN)NC(=O)[C@H](CCCNC(=N)N)NC(=O)[C@H](C)NC(=O)[C@H](CO)NC(=O)[C@H](CC(C)C)NC(=O)[C@H](CCC(N)=O)NC(=O)[C@H](CC)NC(=O)[C@H](CC(C)C)NC(=O)[C@@H](NC(=O)[C@H](CCCN)NC(=O)[C@H](CCCNC(=N)N)NC(=O)[C@H](Cc1ccc(O)cc1)NC(=O)[C@H](CO)NC(=O)[C@H](CC(N)=O)NC(=O)[C@@H](NC(=O)[C@H](Cc1ccccc1)NC(=O)[C@@H](NC(=O)[C@H](C)NC(=O)[C@H](CC(=O)O)NC(=O)[C@H](C)NC(=O)CCc1ccc(O)cc1)[C@@H](C)CC)[C@@H](C)O)C(C)C)[C@@H](C)CC)C(=O)N[C@@H](CC(=O)O)C(=O)NCCCCNC(=N)N [JI-34, reference compound] (Desaminotyrosyl-ADAIFTNSYR[Orn]VL[Abu]QLSAR[Orn]LLQDI[Nle]D-Agmatine; N-terminus and C-terminus assumed) | 4.32 | – | – | – | – | – | – | – | – | – | – | – | – | –
2 | CCCC[C@H](NC(=O)[C@@H](NC(=O)[C@H](CC(=O)O)NC(=O)[C@H](CCC(N)=O)NC(=O)[C@H](CC(C)C)NC(=O)[C@H](CC(C)C)NC(=O)[C@H](CCCN)NC(=O)[C@H](CCCNC(=N)N)NC(=O)[C@H](C)NC(=O)[C@H](CO)NC(=O)[C@H](CC(C)C)NC(=O)[C@H](CCC(N)=O)NC(=O)[C@H](CC)NC(=O)[C@H](CC(C)C)NC(=O)[C@@H](NC(=O)[C@H](CCCN)NC(=O)[C@H](CCCNC(=N)N)NC(=O)[C@H](Cc1ccc(O)cc1)NC(=O)[C@H](CO)NC(=O)[C@@H](NC(=O)[C@@H](NC(=O)[C@H](Cc1ccccc1)NC(=O)[C@@H](NC(=O)[C@H](C)NC(=O)[C@H](CC(=O)O)NC(=O)[C@H](C)NC(=O)CCc1ccc(O)cc1)[C@@H](C)CC)[C@@H](C)O)[C@@H](C)O)C(C)C)[C@@H](C)CC)C(=O)N[C@@H](CC(=O)O)C(=O)NCCCCNC(=N)N [JI-36, reference compound] (Desaminotyrosyl-ADAIFTTSYR[Orn]VL[Abu]QLSAR[Orn]LLQDI[Nle]D-Agmatine; N-terminus and C-terminus assumed) | 3.25 | – | – | – | – | – | – | – | – | – | – | – | – | –
3 | CCCC[C@H](NC(=O)[C@@H](NC(=O)[C@H](CC(=O)O)NC(=O)[C@H](CCC(N)=O)NC(=O)[C@H](CC(C)C)NC(=O)[C@H](CC(C)C)NC(=O)[C@H](CCCN)NC(=O)[C@H](CCCNC(=N)N)NC(=O)[C@H](C)NC(=O)[C@H](CO)NC(=O)[C@H](CC(C)C)NC(=O)[C@H](CCC(N)=O)NC(=O)[C@H](CC)NC(=O)[C@H](CC(C)C)NC(=O)[C@@H](NC(=O)[C@H](CCCN)NC(=O)[C@H](CCCNC(=N)N)NC(=O)[C@H](Cc1ccc(O)cc1)NC(=O)[C@H](CO)NC(=O)[C@H](CCC(N)=O)NC(=O)[C@@H](NC(=O)[C@H](Cc1ccccc1)NC(=O)[C@@H](NC(=O)[C@H](C)NC(=O)[C@H](CC(=O)O)NC(=O)[C@@H](C)NC(=O)[C@H](Cc1ccc(O)cc1)NC)[C@@H](C)CC)[C@@H](C)O)C(C)C)[C@@H](C)CC)C(=O)N[C@@H](CC(=O)O)C(=O)N[C@@H](CCCNC(=N)N)C(=O)NCCCCC(N)=O [Peptide P-22326, [N—Me-Tyr^1, D-Ala^2, Gln^8, Orn^12, Abu^15, Orn^21, Nle^27, Asp^28, Apa^30] hGHRH(1-30)NH2] (H-[NMeY][dA]DAIFTQSYR[Orn]VL[Abu]QLSAR[Orn]LLQDI[Nle]DR[Ava]-NH2) | – | 6.12 | 2.80 | 7.81 | 43.7 ± 6.4 | 309.2 ± 33.5 | 225.9 ± 19.8 | 92.7 | 303.4 | 0.28 | 0.94 | 1.76 | 2.31 | GH-releasing potency after s.c. administration (in words) (GH release [4]): significantly higher potencies at 30 minutes than at 15 minutes; Relative potency compared to JI-38, 15 min (GH release [4]; listed as MR-326): 1.5 and 1.47; Relative potency compared to JI-38, 30 min (GH release [4]; listed as MR-326): 2.7 and 2.71; Stimulation of growth hormone levels after subcutaneous administration (in words) (GH release [6]; s.c.): stimulated greater growth hormone levels than hGHRH or JI-38
4 | CCCC[C@H](NC(=O)[C@@H](NC(=O)[C@H](CC(=O)O)NC(=O)[C@H](CCC(N)=O)NC(=O)[C@H](CC(C)C)NC(=O)[C@H](CC(C)C)NC(=O)[C@H](CCCN)NC(=O)[C@H](CCCNC(=N)N)NC(=O)[C@H](C)NC(=O)[C@H](CO)NC(=O)[C@H](CC(C)C)NC(=O)[C@H](CCC(N)=O)NC(=O)[C@H](CC)NC(=O)[C@H](CC(C)C)NC(=O)[C@@H](NC(=O)[C@H](CCCN)NC(=O)[C@H](CCCNC(=N)N)NC(=O)[C@H](Cc1ccc(O)cc1)NC(=O)[C@H](CO)NC(=O)[C@H](CC(N)=O)NC(=O)[C@@H](NC(=O)[C@H](Cc1ccccc1)NC(=O)[C@@H](NC(=O)[C@H](C)NC(=O)[C@H](CC(=O)O)NC(=O)[C@@H](CC)NC(=O)CCc1ccc(O)cc1)[C@@H](C)CC)[C@@H](C)O)C(C)C)[C@@H](C)CC)C(=O)N[C@@H](CO)C(=O)N[C@@H](CCCNC(=N)N)C(=O)NCCCC(N)=O [Peptide P-25504, [Dat^1, D-Abu^2, Orn^12, Abu^15, Orn^21, Nle^27, Gab^30]hGHRH(1-30)NH2] (Desaminotyrosyl-[dAbu]DAIFTNSYR[Orn]VL[Abu]QLSAR[Orn]LLQDI[Nle]SR[GABA]-NH2) | – | 3.02 | 0.96 | 2.68 | 25.4 ± 4.1 | 200.0 ± 10.7 | 130.0 ± 19.1 | 52.6 | 113.8 | 1.65 | 1.37 | 0.78 | 0.98 | Relative potency compared to JI-38, 15 min (GH release [4]): 0.83; Relative potency compared to JI-38, 30 min (GH release [4]): 1.02; Relative potency, 5 min (GH release [7]; 5 min, JI-38 = 1): 1.55; Relative potency, 15 min (GH release [7]; 15 min, JI-38 = 1): 1.50; Serum GH level at selected time after injection (ng/ml), 0 min (GH release [7]; dose 1 μg/kg, 0 min, mean ± SEM): 25.7 ± 6.3 ng/mL; Serum GH level at selected time after injection (ng/ml), 5 min (GH release [7]; dose 1 μg/kg, 5 min, mean ± SEM): 832 ± 214 ng/mL; Serum GH level at selected time after injection (ng/ml), 15 min (GH release [7]; dose 1 μg/kg, 15 min, mean ± SEM): 297 ± 45.6 ng/mL; GH releasing potency in vivo relative to JI-38 (=1) (GH release [5]; 5 min after): 1.66
